Results from ChEMBL document CHEMBL4321794, “Discovery and Optimization of 2-Arylquinazolin-4-ones into a Potent and Selective Tankyrase Inhibitor Modulating Wnt Pathway Activity” (J Med Chem, 2019).
pIC50: −log10 of the molar value. ≈ marks a conversion by molar mass, not a printed value. Calls of active or inactive are those of the source. The calls are words filed in the database; no cut-off is given here.

Legend:
[1] = Thermodynamic solubility in phosphate buffer at pH 7.4 at 2 mg incubated under shaking condition for 6 hrs followed by rechecking and readjusting pH to 7.4 and further incubated for 18 hrs by HPLC/UV detection method; assay type: physicochemical; conditions: read-out: Therm_solubility
[2] = biological target: Poly [ADP-ribose] polymerase 2 (Homo sapiens, UniProt Q9UGN5); experiment: Inhibition of N-terminal GST-tagged recombinant human PARP2 (2 to 583 residues) expressed in Baculovirus infected Sf9 cells using biotinylated substrate after 1 hr by chemiluminescence method
[3] = biological target: T1, Protein mono-ADP-ribosyltransferase PARP11 (Homo sapiens, UniProt Q9NR21); experiment: Inhibition of human N-terminal GST-tagged PARP11 (8 to 338 residues) expressed in baculovirus infected Sf9 insect cells using biotinylated substrate by chemiluminescence method
T1 sequence (Q9NR21 whole entry): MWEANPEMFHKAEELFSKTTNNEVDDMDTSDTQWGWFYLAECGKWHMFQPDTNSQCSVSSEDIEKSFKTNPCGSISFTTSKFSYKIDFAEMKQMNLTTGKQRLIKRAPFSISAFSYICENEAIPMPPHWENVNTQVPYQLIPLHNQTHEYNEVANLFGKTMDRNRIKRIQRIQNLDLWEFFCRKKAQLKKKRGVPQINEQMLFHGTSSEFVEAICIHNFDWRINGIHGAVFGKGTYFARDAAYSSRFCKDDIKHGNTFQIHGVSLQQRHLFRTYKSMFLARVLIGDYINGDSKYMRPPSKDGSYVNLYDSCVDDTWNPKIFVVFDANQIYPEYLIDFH

[4] = biological target: T2, Protein mono-ADP-ribosyltransferase PARP3 (Homo sapiens, UniProt Q9Y6F1); experiment: Inhibition of N-terminal GST-tagged recombinant full length human PARP3 expressed in Baculovirus infected Sf9 cells using biotinylated substrate after 1 hr by chemiluminescence method
T2 sequence (Q9Y6F1 whole entry): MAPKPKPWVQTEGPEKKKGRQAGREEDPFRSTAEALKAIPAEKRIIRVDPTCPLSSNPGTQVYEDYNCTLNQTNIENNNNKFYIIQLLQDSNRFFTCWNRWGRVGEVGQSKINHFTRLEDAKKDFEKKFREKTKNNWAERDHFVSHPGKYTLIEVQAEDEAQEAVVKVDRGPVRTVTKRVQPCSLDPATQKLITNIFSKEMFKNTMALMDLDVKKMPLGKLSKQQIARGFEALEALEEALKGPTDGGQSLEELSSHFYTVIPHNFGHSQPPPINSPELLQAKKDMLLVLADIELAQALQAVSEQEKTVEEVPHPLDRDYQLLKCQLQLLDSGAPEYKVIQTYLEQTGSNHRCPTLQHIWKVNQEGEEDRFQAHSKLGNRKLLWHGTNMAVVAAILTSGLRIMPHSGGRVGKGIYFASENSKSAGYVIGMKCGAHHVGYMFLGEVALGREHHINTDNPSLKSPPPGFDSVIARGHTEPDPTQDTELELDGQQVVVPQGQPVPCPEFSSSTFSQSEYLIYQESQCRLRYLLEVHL

[5] = Intrinsic clearance in human hepatocytes assessed per million cells; assay type: ADME, cell-based, Hepatocyte; conditions: read-out: CLH
[6] = Protein binding in mouse plasma assessed as unbound fraction at 30 mg/kg, po; assay type: ADME, organism-based
Mus musculus [7] = experiment: Ex vivo inhibition of tankyrase 1/2 in human DLD1 cells xenografted in immunodeficient athymic nude mouse assessed as increase in tankyrase level in tumor lysates at 10 mg/kg, po administered via gavage by luminex based bead assay; assay type: functional, organism-based; conditions: Neoplasm, Lysate, TDE = time-dependent effect
[8] = Half-life in mouse; assay type: ADME, organism-based; conditions: in vivo
Mus musculus [9] = experiment: Ex vivo inhibition of tankyrase 1/2 in human DLD1 cells xenografted in immunodeficient athymic nude mouse assessed as increase in tankyrase level in tumor lysates at 10 mg/kg, po administered via gavage measured after 12 hrs by luminex based bead assay; assay type: functional, organism-based; conditions: Neoplasm, Lysate

Sequence of Poly [ADP-ribose] polymerase 2 (Q9UGN5 whole entry, the tested form may be a part): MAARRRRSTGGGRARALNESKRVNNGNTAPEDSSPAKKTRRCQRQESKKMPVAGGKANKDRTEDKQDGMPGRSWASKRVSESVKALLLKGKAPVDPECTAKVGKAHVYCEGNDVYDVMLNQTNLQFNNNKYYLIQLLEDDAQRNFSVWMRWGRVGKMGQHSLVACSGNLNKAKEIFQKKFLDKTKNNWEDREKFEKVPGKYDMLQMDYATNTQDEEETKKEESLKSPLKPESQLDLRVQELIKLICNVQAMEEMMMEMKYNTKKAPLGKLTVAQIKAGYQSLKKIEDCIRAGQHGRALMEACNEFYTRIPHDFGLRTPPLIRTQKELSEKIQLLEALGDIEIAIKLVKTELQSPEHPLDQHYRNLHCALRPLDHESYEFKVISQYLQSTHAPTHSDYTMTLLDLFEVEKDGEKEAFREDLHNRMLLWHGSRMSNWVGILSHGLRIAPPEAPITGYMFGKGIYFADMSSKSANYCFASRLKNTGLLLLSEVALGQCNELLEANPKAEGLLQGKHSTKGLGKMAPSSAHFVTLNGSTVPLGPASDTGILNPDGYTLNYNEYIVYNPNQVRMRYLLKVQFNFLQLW

Compound: CC(C)(O)c1ccc(-c2nc3c(F)cc(F)cc3c(=O)[nH]2)cc1
- solubility thermodynamic at 24 h [1]: 31 µg/mL (≈ 98 µM)
- pIC50 [2]: 6.00
- pIC50 [3]: < 5.00
- pIC50 [4]: 5.72
- hepatocyte CLint [5]: 1.25 µL/min/1e6 cells
- fraction unbound [6]: 0.086
- inhibition (Mus musculus [7]): Tde
- half-life [8]: 1.4 h
- inhibition (Mus musculus [9]): Active
